Results on 2 compounds are retold here after patent US20230172915A1, “DHODH INHIBITOR FOR THE TREATMENT OF COVID-19” (priority 2020, published 2023).

The structures appear in SMILES notation.

One experiment has as its target T1, DHODH (Homo sapiens, UniProt Q02127).
T1 construct: from tissue; host or cells: isolated mitochondria / mitochondria extracts
The experiment can be described thus: Isolated mitochondria colorimetric assay of DHODH activity. It counts as biochemical. Particulars: 0.1, 1, 10, 100, 1000, or 1000 nM. From the text: FIG. 3 is a plot of % inhibition vs compound concentration in nM, illustrating the results of a colorimetric assay of inhibition of DHODH activity in vitro in mitochondria extracts by PTC299, brequinar, and teriflunomide, compared to the negative control, PTC-371.
The latter two compounds are known DHODH inhibitors.

The subject of experiment [1] is HT1080 human fibrosarcoma cells. The experiment can be described thus: De novo pyrimidine nucleotide synthesis from 15N-glutamine in HT1080 cells. It counts as cell-based. Particulars: 100 nM. From the text: In this Example, fibrosarcoma cells were used to investigate the effect of PTC299 on pyrimidine nucleotide synthesis. Glutamine is an upstream precursor of dihydroorotic acid in the de novo pyrimidine synthesis pathway, as illustrated in FIG. 1.

For another experiment, the system named is SARS-CoV-2 USA-WA1/2020. The experiment can be described thus: PTC299 and remdesivir alone or combined, SARS-CoV-2 titer in Vero cells (TCID50). It counts as cell-based. Particulars: remdesivir 5 µM, 24 hours post infection.

T1 sequence (Q02127 whole entry, species assumed): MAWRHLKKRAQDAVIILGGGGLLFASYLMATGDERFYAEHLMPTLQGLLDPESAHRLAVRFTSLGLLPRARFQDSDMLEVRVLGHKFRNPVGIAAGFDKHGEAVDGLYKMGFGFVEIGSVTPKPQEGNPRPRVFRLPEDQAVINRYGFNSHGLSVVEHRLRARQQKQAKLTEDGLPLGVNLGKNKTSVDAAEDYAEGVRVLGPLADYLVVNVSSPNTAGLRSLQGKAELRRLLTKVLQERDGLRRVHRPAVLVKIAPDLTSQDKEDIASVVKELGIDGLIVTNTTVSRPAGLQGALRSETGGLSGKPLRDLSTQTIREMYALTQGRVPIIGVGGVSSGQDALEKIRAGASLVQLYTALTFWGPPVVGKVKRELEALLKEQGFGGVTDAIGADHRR

With `COc1ccc(C2c3[nH]c4ccc(Cl)cc4c3CCN2C(=O)Oc2ccc(Cl)cc2)cc1` (stereo not drawn) [PTC-371, reference compound], the “inhibition of DHODH activity” value at DHODH is given as “no inhibition was observed”. Moreover, the “suppression of de novo pyrimidine nucleotide biosynthesis” value in experiment [1] is “did not suppress de novo pyrimidine nucleotide biosynthesis”.
Regarding `CCC(CC)COC(=O)[C@H](C)N[P@](=O)(OC[C@H]1O[C@@](C#N)(c2ccc3c(N)ncnn23)[C@H](O)[C@@H]1O)Oc1ccccc1` [Remdesivir, remdesivir, reference compound], in the experiment on SARS-CoV-2 USA-WA1/2020, the “reduction in titer relative to untreated control” value came to 86%.
